In PubChem BioAssay (NCI):
Several values for one entry are separate records, joined by “and”; a condition that tells them apart may be missing. Equal entries are not always repeated.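 How tested: cells in 96-well plates exposed to compound for 48 hours at five concentrations. Abbreviation: GI50, concentration required for 50% inhibition of growth. TGI marks complete inhibition of growth.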

Columns and labels:
Test in all cases: NCI anticancer screen, dose series, 48 h
NCI-H226 lung = system: NCI-H226 lung
NCI-H23 lung = system: NCI-H23 lung
HOP-62 NSCLC = system: HOP-62 NSCLC
SF-268 CNS = system: SF-268 CNS
SR leukemia = system: SR leukemia
LOX IMVI melanoma = system: LOX IMVI melanoma
HCT-15 colon = system: HCT-15 colon
A549 NSCLC = system: A549 NSCLC
OVCAR-3 ovarian = system: OVCAR-3 ovarian
OVCAR-5 ovarian = system: OVCAR-5 ovarian

Compound	GI50 (NCI-H226 lung)	TGI (NCI-H226 lung)	GI50 (NCI-H23 lung)	TGI (NCI-H23 lung)	GI50 (HOP-62 NSCLC)	TGI (HOP-62 NSCLC)	GI50 (SF-268 CNS)	TGI (SF-268 CNS)	GI50 (SR leukemia)	TGI (SR leukemia)	GI50 (LOX IMVI melanoma)	TGI (LOX IMVI melanoma)	GI50 (HCT-15 colon)	TGI (HCT-15 colon)	GI50 (A549 NSCLC)	TGI (A549 NSCLC)	GI50 (OVCAR-3 ovarian)	TGI (OVCAR-3 ovarian)	GI50 (OVCAR-5 ovarian)	TGI (OVCAR-5 ovarian)
O=C(/C=C\n1cnc(-c2cc(C(F)(F)F)cc(C(F)(F)F)c2)n1)NNc1cnccn1	0.0384 µM	3.05 µM	0.0661 µM	15.7 µM	0.289 µM	15.7 µM	0.0577 µM	10.6 µM	0.0362 µM	> 100 µM	0.0446 µM	1.5 µM	0.098 µM	13.4 µM	0.0785 µM	19 µM	0.0574 µM	4.03 µM	0.189 µM	16.3 µM
CCc1oc2ccccc2c1C(=O)c1cc(I)c(O)c(I)c1	10.6 µM	27 µM	3.91 µM	17.4 µM	5.85 µM	20.3 µM	2.89 µM	15.2 µM	0.568 µM	17.9 µM	3.51 µM	17.1 µM	2.26 µM	14.1 µM	3.61 µM	17.6 µM	2.04 µM	5.12 µM	11.4 µM	25.1 µM
N#Cc1cccc(NC(=O)c2cc(-c3ccc(F)cc3F)ccc2O)c1	1.67 µM	6.43 µM	1.43 µM	4.35 µM	2.97 µM	11 µM	3.11 µM	> 100 µM	3.72 µM	89.2 µM	2.45 µM	6.58 µM	2.74 µM	11.4 µM	3.09 µM	28.4 µM	2.17 µM	11.7 µM	3.2 µM	25.5 µM
CC(=O)N1C/C(=C\c2ccc(N(C)C)cc2)C(=O)/C(=C/c2ccc(N(C)C)cc2)C1	–	> 100 µM	–	> 100 µM	–	> 100 µM	–	> 100 µM	–	> 100 µM	–	> 100 µM	–	> 100 µM	–	> 100 µM	–	56.3 µM	–	> 100 µM
COc1cc2c(c(OC)c1OC)C(=O)[C@@H]1c3ccc([N+](=O)[O-])cc3C(=O)N(CCCBr)[C@H]21	13.6 µM	49.7 µM	15.4 µM	35.8 µM	13.9 µM	41.4 µM	8.6 µM	41.6 µM	3.92 µM	> 100 µM	19.5 µM	> 100 µM	20.3 µM	> 100 µM	12.3 µM	45.5 µM	2.02 µM	12.4 µM	31 µM	91.9 µM
Cc1ccc(C(=O)Nc2ccc(CN3CCN(C)CC3)c(C(F)(F)F)c2)cc1C#Cc1cnc(N)c2ccccc12	1.16 µM	6.54 µM	0.799 µM	1.76 µM	0.849 µM	2.13 µM	0.403 µM	1.26 µM	0.134 µM	2.66 µM	0.509 µM	1.09 µM	0.142 µM	0.849 µM	0.447 µM	1.26 µM	0.578 µM	1.35 µM	0.609 µM	1.5 µM
CC(C)c1cc2c(O)c(c1)Cc1cc(C(C)C)cc(c1O)Cc1cc(C(C)C)cc(c1O)Cc1cc(C(C)C)cc(c1O)C2	–	> 100 µM	–	> 100 µM	–	> 100 µM	–	> 100 µM	–	> 100 µM	–	> 100 µM	–	> 100 µM	–	> 100 µM	–	> 100 µM	–	> 100 µM
CS(=O)(=O)c1cc(=O)c2ccccc2s1	–	20.3 µM	–	24.7 µM	–	41.3 µM	–	32.1 µM	–	8.09 µM	–	17.6 µM	–	4.86 µM	–	35.7 µM	–	5.27 µM	–	22.3 µM
CCCCCN(CCCCC)CC(O)c1ccc(Cl)c2ccccc12 (stereo not drawn)	10 µM	23.1 µM	4.5 µM	19.9 µM	13.1 µM	26.5 µM	13.5 µM	30.1 µM	4.11 µM	14.7 µM	3.94 µM	16.4 µM	6.98 µM	22.1 µM	14.2 µM	34 µM	12.4 µM	26.5 µM	9.41 µM	22 µM
COC(=O)C(=Cc1cc(OC)c(OC)c(OC)c1-c1cc2c(cc1C(C)=O)OCO2)C(=O)OC	–	100 µM	–	75.9 µM	–	67.1 µM	–	133 µM	–	> 211 µM	–	79.4 µM	–	50.2 µM	–	165 µM	–	56.2 µM	–	74.1 µM
Fc1ccc(-c2nn3ncccc3c2-c2ccnc(Nc3ccc4c(c3)OCCO4)n2)cc1	5.76 µM	> 18.9 µM	6.8 µM	> 25 µM	15.2 µM	> 25 µM	7.36 µM	> 25 µM	5.74 µM	> 23.2 µM	3.38 µM	13.7 µM	3.59 µM	19.4 µM	2.71 µM	> 25 µM	2.12 µM	> 16.2 µM	14 µM	> 25 µM
Nc1nc(-c2cccc(Cl)c2)c(-c2ccc3ncccc3n2)s1	> 22 µM	> 25 µM	> 25 µM	> 25 µM	> 25 µM	> 25 µM	> 25 µM	> 25 µM	> 25 µM	> 25 µM	> 25 µM	> 25 µM	> 25 µM	> 25 µM	> 25 µM	> 25 µM	> 25 µM	> 25 µM	> 25 µM	> 25 µM
C=C(C)C1CCC2(C(=O)O)CCC3(C)C(CCC4C5(C)CCC(OC(=O)NCc6ccccc6)C(C)(C)C5CCC43C)C12 (stereo not drawn)	6.69 µM	> 100 µM	2.31 µM	44 µM	3.87 µM	> 100 µM	4.84 µM	> 100 µM	2.22 µM	> 100 µM	4.84 µM	> 100 µM	3.74 µM	> 100 µM	0.961 µM	> 100 µM	2.04 µM	13.9 µM	84.3 µM	> 100 µM
COc1ccc(-c2nnc(COc3ccc(NC(=O)Nc4ccc(Cl)c(C(F)(F)F)c4)cc3F)o2)cc1	4.93 µM	37.3 µM	3.12 µM	14.6 µM	5.07 µM	21.8 µM	6.01 µM	36.1 µM	1.39 µM	4.09 µM	2.93 µM	> 100 µM	2.74 µM	33 µM	3.25 µM	18.7 µM	3.02 µM	10.5 µM	10.9 µM	71.4 µM
CC(C)(C)c1cc(NC(=O)Cc2ccc(-c3cnc4cc(-c5cnn(CCN6CCOCC6)c5)ccc4n3)cc2)no1	0.223 µM and 0.533 µM and 0.0783 µM	50 µM and > 100 µM and > 3 µM	0.627 µM and 1.08 µM and 0.131 µM	50 µM and > 100 µM and > 3 µM	–	50 µM and > 100 µM and > 3 µM	0.413 µM and 0.468 µM and 0.0781 µM	50 µM and > 100 µM and > 3 µM	0.197 µM and 0.336 µM and 0.0938 µM	50 µM and > 100 µM and > 3 µM	0.248 µM and 0.416 µM and 0.0821 µM	50 µM and > 100 µM and > 3 µM	0.166 µM and 0.342 µM and 0.0517 µM	50 µM and > 100 µM and > 3 µM	0.335 µM and 0.506 µM and 0.108 µM	50 µM and > 100 µM and > 3 µM	0.482 µM and 0.675 µM and 0.105 µM	50 µM and > 100 µM and > 3 µM	–	50 µM and > 100 µM and > 3 µM
Cn1cnc([N+](=O)[O-])c1[Se]c1nc(N)nc2c1ncn2C1OC(CO)C(O)C1O (stereo not drawn)	–	> 100 µM	–	> 100 µM	–	> 100 µM	–	> 100 µM	–	> 100 µM	–	> 100 µM	–	> 100 µM	–	> 100 µM	–	> 100 µM	–	> 100 µM
COc1ccccc1Cn1cc2c(c1-c1ccccc1)CCc1cnoc1-2	8.52 µM	> 100 µM	3.36 µM	74 µM	3.73 µM	> 100 µM	8.34 µM	> 100 µM	0.491 µM	56.5 µM	3.04 µM	> 100 µM	1.71 µM	> 100 µM	4.31 µM	> 100 µM	1.23 µM	4.32 µM	9.82 µM	> 100 µM
Cc1ccc(NC(=O)c2sc3nc(C)c(C(O)c4ccccc4)cc3c2N)cc1 (stereo not drawn)	1.27 µM	41.2 µM	0.722 µM	> 100 µM	0.716 µM	23.6 µM	2.47 µM	> 100 µM	0.283 µM	> 25.6 µM	0.629 µM	19 µM	0.397 µM	> 73 µM	0.64 µM	32.7 µM	0.351 µM	11.4 µM	0.698 µM	24.1 µM
O=C(Nc1ccc(Cl)cc1Cl)C(=O)C(C(=O)c1ccncc1)C1OC(=O)c2ccccc21 (stereo not drawn)	–	> 100 µM	–	> 100 µM	–	> 100 µM	–	> 100 µM	–	> 100 µM	–	> 100 µM	–	> 100 µM	–	> 100 µM	–	> 100 µM	–	> 100 µM
COC(=O)C(=O)C(C(=O)C=C(C)C)C(=O)C(=O)Nc1ccc(C)cc1C (stereo not drawn)	–	> 100 µM	–	> 100 µM	–	> 100 µM	–	> 100 µM	–	> 100 µM	–	> 100 µM	–	> 100 µM	–	> 100 µM	–	> 100 µM	–	> 100 µM
CC1(C)N=C(N)N=C(N)N1c1ccc(OCc2ccc(S(=O)(=O)F)c(Cl)c2)c(Cl)c1	9.72 µM	> 100 µM	2.09 µM	> 100 µM	7.93 µM	> 100 µM	2.85 µM	> 100 µM	0.432 µM	> 100 µM	0.448 µM	> 100 µM	0.586 µM	> 100 µM	0.499 µM	> 100 µM	4.69 µM	> 100 µM	> 100 µM	> 100 µM
